Data set [1] is described as follows: Cyclic voltammetry in dichloromethane solution. The data set is classed as physicochemical. On the procedure: The electron affinity, 3.8 eV, and ionization potential, 5.8 eV, were determined from the onset of reduction (ca. −1.0V) and oxidation (ca. 1.0V), respectively, using a conversion value of 4.8. These values are similar to those of previously reported PDI dimers and indicate that compound 3 is suitable for use as an electron acceptor and transporting material in organic electronic devices. An analogous normalized CV plot of compound 4 is provided in FIG. 2B, where no oxidation is observed due to the electron withdrawing nature of the BOC group.
Cyclic Voltammetry (CV): All electrochemical measurements were performed using a CH Instruments potentiostat in a standard three-electrode configuration equipped with a silver wire pseudo-reference, platinum wire counter electrode and glassy carbon working electrode. The cyclic voltammetry experiments were performed in an anhydrous solution of dichloromethane (CH2Cl2) with ˜0.1 M tetrabutylammonium-hexafluorophosphate (TBAPF6) supporting electrolyte. Samples were scanned at a rate of 100 mV/s following a dry N2 purge to deoxygenate the solution, unless otherwise noted. Solution CV measurements were carried out with a sample concentration of ˜0.5 mg/mL in CH2Cl2, unless otherwise noted. Estimations of the energy levels were obtained by correlating the onset (Eox Fc/Fc+, Ered Fc/Fc+) to the normal hydrogen electrode (NHE), assuming a HOMO energy level of 4.80 eV for Fc/Fc+: E(HOMO)=−(Eox+4.80), E(LUMO)=−(Ered+4.80) UV-Visible Spectroscopy (UV/vis): All absorption measurements were recorded using an Agilent Technologies Cary 60 UV-vis spectrometer at room temperature. All solution UV/vis experiments were run in chloroform (CHCl3) using 2 mm quartz cuvettes and diluted 1% wt/v solutions, unless otherwise noted. Thin-films were prepared by spin-coating 1% wt/v solutions from CHCl3 onto Corning glass micro slides, unless otherwise noted. Prior to use, glass slides were cleaned with soap and water, acetone and isopropanol, and followed by UV/ozone treatment using a Novascan UV/ozone cleaning system.

A short description of data set [2]: Thermal stability by TGA and DSC. The data set is classed as physicochemical. On the procedure:
Decomposition occurred above 390° C. as determined by thermal gravimetric analysis (TGA, FIG. 4A) and no phase transitions were observed up to 350° C. as determined by differential scanning calorimetry (DSC) (see FIG. 5A). This stability is similar to that of compound 5. TGA of compound 4 is illustrated in FIG. 4B. The TGA were run under N2 at 2° C. per min.
The impact of thermal annealing on the thin-film optical absorption profile is an important factor for use of such dimers. The BOC functionalized derivative 4 was synthesized at least in part to enable facile solution processing of the PDI dimer and generation of 3 in the solid film through thermal deprotection after film formation. FIGS. 5A-5C are DSC plots for compounds 3, 4 and 5, respectively, run under N2 at 10° C. per min. For clarity, the second and third trials of each cooling run and the third trial of each heating run is omitted for all species because the data is indistinguishable from previous runs. During the first heating trial of compound 4, an endothermic peak is clearly present in the plot with an onset occurring at 160° C. This was assumed to be the temperature where cleavage of the protecting group begins to occur and this is confirmed by the fact that this feature is not present in the second heating trial, which has a profile strongly resembling that of the heated NH Dimer 3 and further confirmed by bulk deprotection of compound 4 in an oven at 180° C. The first heating trial of compound 3 features a smooth, downward sloping line. […] This feature is due to a cold-crystallization and has previously been observed in similar molecules.
Thus, films were thermally annealed above this temperature (e.g., at 200° C.) to ensure the BOC protecting group was removed. Films of all three compounds 3-5 were studied.

A short description of data set [3]: physchem. Particulars: organic solvent or mixture.
Data set [4] can be described thus: Solubility in organic solvents. As to conditions: organic solvent or mixture.

The structures appear in SMILES notation. In brackets after ≈: the same amount, converted by molar mass. Some results are limits rather than exact numbers.

Turning to `CCC(CC)n1c(=O)c2ccc3c4c(-c5cc6c(=O)n(C(CC)CC)c(=O)c7cc8[nH]c9cc%10c(=O)n(C(CC)CC)c(=O)c%11ccc%12c5c(c67)c8c9c%12c%11%10)cc5c(=O)n(C(CC)CC)c(=O)c6cc7[nH]c8cc(c1=O)c2c3c8c7c4c56` [Compound 3, tPDI2N—H], the “oxidation waves E1/2” value in data set [1] (dichloromethane solution, hexafluorophosphate electrolyte) is on record as 1.1 V vs. Fc/Fc+. Moreover, the ionization potential in data set [1] (from onset of oxidation (ca. 1.0V), conversion value of 4.8) was found to be 5.8 eV. Besides, the electron affinity in data set [1] (from onset of reduction (ca. -1.0V), conversion value of 4.8) is 3.8 eV. For the same compound, the decomposition temperature result in data set [2] (TGA under N2 at 2° C. per min) was “above 390 °C”. In addition, the solubility in data set [3] is around 5000 µg/mL (≈ 4.61 mM).

Regarding `CCC(CC)n1c(=O)c2ccc3c4c(-c5cc6c(=O)n(C(CC)CC)c(=O)c7cc8c9c(c5c5ccc%10c(=O)n(C(CC)CC)c(=O)c%11cc(c9c5c%10%11)n8C(=O)OC(C)(C)C)c67)cc5c(=O)n(C(CC)CC)c(=O)c6cc7c(c4c56)c4c3c2c(cc4n7C(=O)OC(C)(C)C)c1=O` [Compound 4, tPDI2N—BOC], the “onset of endothermic peak (cleavage of the protecting group begins)” value in data set [2] (DSC first heating trial, under N2 at 10° C. per min) came to 160 °C. The “loss of the BOC group” value in data set [2] (TGA and DSC) was around 170 °C.

As for `CCCCCCn1c2cc3c(=O)n(C(CC)CC)c(=O)c4ccc5c6c(-c7cc8c(=O)n(C(CC)CC)c(=O)c9cc%10c%11c(c7c7ccc%12c(=O)n(C(CC)CC)c(=O)c%13cc(c%11c7c%12%13)n%10CCCCCC)c89)cc7c(=O)n(C(CC)CC)c(=O)c8cc1c(c6c78)c2c5c43` [Compound 5, tPDI2N-Hex], the solubility in data set [4] was above 50000 µg/mL.

For orientation: solubility means the concentration that dissolves in the medium under given conditions.

The values above are taken from patent publication US10647732B2, “N-annulated perylene diimide dimers with active pyrrolic N—H bonds” (UTI Limited Partnership, priority 2018, dated 2020).
